According to BindingDB's records for doi:10.1021/jm900431g (Boehringer Ingelheim Pharma, 2009):

What follows are compounds tested against Vascular endothelial growth factor receptor 2 (Homo sapiens, UniProt P35968) (assay: Inhibition of human VEGFR2 expressed in Sf9 cells).
Sequence of Vascular endothelial growth factor receptor 2 (P35968 whole entry): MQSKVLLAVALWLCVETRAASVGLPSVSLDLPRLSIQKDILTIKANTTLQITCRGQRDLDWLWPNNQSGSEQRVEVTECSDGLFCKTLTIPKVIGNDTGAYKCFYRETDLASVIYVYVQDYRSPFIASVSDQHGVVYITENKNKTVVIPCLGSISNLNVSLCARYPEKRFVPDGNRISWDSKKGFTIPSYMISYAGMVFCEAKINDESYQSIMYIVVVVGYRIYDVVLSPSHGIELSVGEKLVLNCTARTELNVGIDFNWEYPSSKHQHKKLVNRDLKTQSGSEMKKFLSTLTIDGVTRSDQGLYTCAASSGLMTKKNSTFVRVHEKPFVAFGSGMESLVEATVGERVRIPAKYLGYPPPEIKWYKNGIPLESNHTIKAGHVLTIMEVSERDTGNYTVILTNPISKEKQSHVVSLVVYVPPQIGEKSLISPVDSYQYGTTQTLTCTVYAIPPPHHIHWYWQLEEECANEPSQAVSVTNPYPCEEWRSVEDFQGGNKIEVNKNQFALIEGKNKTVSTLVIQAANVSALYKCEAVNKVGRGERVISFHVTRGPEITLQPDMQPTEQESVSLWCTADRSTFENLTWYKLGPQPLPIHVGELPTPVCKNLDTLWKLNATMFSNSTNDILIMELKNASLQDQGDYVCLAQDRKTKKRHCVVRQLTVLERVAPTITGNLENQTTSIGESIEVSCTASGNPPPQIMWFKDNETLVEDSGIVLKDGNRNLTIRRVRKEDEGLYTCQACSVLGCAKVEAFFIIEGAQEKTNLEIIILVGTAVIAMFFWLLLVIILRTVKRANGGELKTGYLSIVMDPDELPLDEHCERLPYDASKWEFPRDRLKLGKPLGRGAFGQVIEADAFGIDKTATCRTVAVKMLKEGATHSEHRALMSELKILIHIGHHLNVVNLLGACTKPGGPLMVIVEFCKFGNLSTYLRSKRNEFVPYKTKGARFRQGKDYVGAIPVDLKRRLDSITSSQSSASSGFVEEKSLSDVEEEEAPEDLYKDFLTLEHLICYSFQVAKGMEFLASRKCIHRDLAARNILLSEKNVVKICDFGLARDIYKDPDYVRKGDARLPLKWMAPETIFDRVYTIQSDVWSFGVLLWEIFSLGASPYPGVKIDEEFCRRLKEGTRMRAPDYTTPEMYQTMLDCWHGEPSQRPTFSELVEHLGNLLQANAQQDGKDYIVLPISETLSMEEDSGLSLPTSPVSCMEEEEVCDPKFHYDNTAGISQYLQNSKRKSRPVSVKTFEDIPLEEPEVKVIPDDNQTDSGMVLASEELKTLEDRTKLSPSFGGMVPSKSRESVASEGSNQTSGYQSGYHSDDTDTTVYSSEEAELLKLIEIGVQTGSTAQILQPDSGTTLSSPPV

IC50	SMILES
> 10 µM	COC(=O)c1ccc2c(c1)NC(=O)C2C(=NC1CCN(C)CC1)c1ccccc1 (stereo not drawn) [(Z)-3-[(1-Methylpiperidin-4-ylamino)-phenyl-methylene]-2-oxo-2,3-dihydro-1H-indole-6-carboxylic Acid Methyl Ester]
0.248 µM	N#Cc1ccc2c(c1)NC(=O)C2C(=Nc1ccc(CN2CCCCC2)cc1)c1ccccc1 (stereo not drawn) [(Z)-6-Cyano-3-[phenyl-(4-piperidin-1-ylmethyl-phenylamino)-methylene]-indolin-2-one]
> 10 µM	COC(=O)c1ccc2c(c1)NC(=O)C2C(=NC1CCC(NC(=O)CN(C)C)CC1)c1ccccc1 (stereo not drawn) [(Z)-methyl 3-((4-(2-(dimethylamino)acetamido)cyclohexylamino)(phenyl)methylene)-2-oxoindoline-6-carboxylate]
